Patent publication US20100227853A1, “INHIBITORS OF CYCLIC AMP PHOSPHODIESTERASES” (Trustees of Boston College, priority 2008, published 2010)
Each block holds one compound with its values, some of them ahead of it.

How the values were obtained:
[1] = molecular target: T1, PDE7B (Homo sapiens, UniProt Q9NP56); assay: 5FOA growth assay in fission yeast strain expressing PDE7B; type: cell-based; design: targets used in the assays are full-length proteins (as opposed to simply the catalytic domain); expressed in transfected cells; host or cells: Schizosaccharomyces pombe; details: OD600 0.6; read-out: ED50 for 5FOA growth assays, PDE7B
Experimental: PDE inhibition allows growth in 5FOA medium as measured by optical density after 48 hours incubation at 30° C. Compound BC12 and six structural analogs were tested for growth stimulation.
Cells were pregrown in EMM medium [MP Biomedicals (Solon, Ohio), 3% glucose, filter-sterilized to avoid carmelization, which would introduce variability into the optical density of the medium] containing from 0 mM to 2.5 mM cAMP (or either 0.5 mM or 1.0 mM cGMP). This was to repress expression of the fbp1-ura4 reporter prior to exposure of cells to 5FOA medium. Cells were grown at 30° C. to exponential phase (approximately 10^7 cells/ml). Cells were collected by centrifugation and resuspended in 5FOA medium, and 25 μl were transferred to 384-well microtiter dishes (untreated, with flat clear bottoms) that had been pre-filled with 25 μl 5FOA medium and pre-pinned with 100 nl of compounds (stock solutions were generally 10 mM). Starting cell concentrations ranged from 0.5×10^5 to 4×10^5 cells/ml depending on the screening strain. […] Other positive control dishes contained 5 mM cAMP in the 5FOA medium for PDEs that lack appropriate control compounds. Cultures were grown for 48 hours at 30° C., sealed in an airtight container with moist paper towels to prevent evaporation. Optical densities (OD600) of cultures were measured using a microplate reader. Bioinformatic analysis of the results to determine composite Z scores was performed as previously described (1, 3).
Target sequence in this assay (Q9NP56 whole entry, species assumed, the tested form may be a part): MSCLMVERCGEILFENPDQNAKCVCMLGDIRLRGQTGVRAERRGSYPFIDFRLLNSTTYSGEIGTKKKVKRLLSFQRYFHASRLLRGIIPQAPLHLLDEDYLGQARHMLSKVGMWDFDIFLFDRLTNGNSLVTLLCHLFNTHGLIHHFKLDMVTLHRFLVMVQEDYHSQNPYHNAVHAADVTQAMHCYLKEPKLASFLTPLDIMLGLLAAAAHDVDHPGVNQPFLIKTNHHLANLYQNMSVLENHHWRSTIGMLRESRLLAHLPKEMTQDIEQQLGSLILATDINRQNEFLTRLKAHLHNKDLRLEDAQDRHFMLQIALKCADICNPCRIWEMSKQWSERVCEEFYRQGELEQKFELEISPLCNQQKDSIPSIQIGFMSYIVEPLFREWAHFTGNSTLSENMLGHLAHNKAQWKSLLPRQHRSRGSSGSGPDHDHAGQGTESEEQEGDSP

[2] = molecular target: PDE4A (Homo sapiens, UniProt P27815); assay: in vitro enzyme assay PDE4A (Table 7); type: biochemical; details: 2 micromolar compound; read-out: percent of PDE activity present, PDE4A
[3] = molecular target: PDE4D (Homo sapiens, UniProt Q08499); assay: in vitro enzyme assay PDE4D (Table 7); type: biochemical; details: 2 micromolar compound; read-out: percent of PDE activity present, PDE4D
[4] = molecular target: PDE7A (Homo sapiens, UniProt Q13946); assay: in vitro enzyme assay PDE7A; type: biochemical; design: made in house; host or cells: E. coli; details: 2 micromolar compound; read-out: percent of PDE activity present, PDE7A
[5] = molecular target: PDE4B (Homo sapiens, UniProt Q07343); assay: in vitro enzyme assay PDE4B (Table 7); type: biochemical; details: 2 micromolar compound; read-out: percent of PDE activity present, PDE4B
[6] = molecular target: T1, PDE7B; assay: in vitro enzyme assay, PDE7B catalytic domain from E. coli, hydrolysis of cAMP to AMP; type: biochemical; design: The PDE7B catalytic domain was expressed in and purified from E. coli; made in house; host or cells: E. coli
Experimental: The PDE7B catalytic domain was expressed in and purified from E. coli and tested for activity in an in vitro enzyme assay, measuring the hydrolysis of cAMP to AMP. Four dilutions of the enzyme preparation were tested at various compound concentrations (X axis). The percent of cAMP hydrolyzed is plotted on the Y axis.
Target sequence in this assay (Q9NP56 97-420 limits assumed, species assumed): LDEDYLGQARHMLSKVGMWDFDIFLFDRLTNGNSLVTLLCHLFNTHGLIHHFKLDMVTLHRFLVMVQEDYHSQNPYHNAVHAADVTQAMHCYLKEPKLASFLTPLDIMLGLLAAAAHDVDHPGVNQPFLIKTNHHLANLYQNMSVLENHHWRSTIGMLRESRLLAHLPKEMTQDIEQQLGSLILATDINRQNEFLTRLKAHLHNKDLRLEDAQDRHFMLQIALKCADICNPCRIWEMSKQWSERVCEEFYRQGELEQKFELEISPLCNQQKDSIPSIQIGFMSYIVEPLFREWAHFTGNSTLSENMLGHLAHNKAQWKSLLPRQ

[7] = molecular target: T2, PDE4D3 (Homo sapiens, UniProt Q08499); assay: cAMP response in yeast strain expressing PDE4D3; type: cell-based
T2 construct: targets used in the assays are full-length proteins (as opposed to simply the catalytic domain); expressed in transfected cells; host or cells: Schizosaccharomyces pombe, PDE gene integrated in place of cgs2

[8] = molecular target: T3, PDE4D2-CAT (Homo sapiens, UniProt Q08499); assay: in vitro enzyme assay, catalytic fragment of PDE4D2 (residues 86-413); type: biochemical; details: catalytic fragment; AC200 = [Compound] that doubles PDE activity; read-out: IC50 (or AC200), PDE4D2-CAT
T3 construct: 86-413; made in house; host or cells: E. coli

[9] = molecular target: T4, PDE4D2-FL (Homo sapiens, UniProt Q08499); assay: in vitro enzyme assay, full-length PDE4D2 (residues 1-507); type: biochemical; details: read-out: IC50 (or AC200), PDE4D2-FL
T4 construct: 1-507; made in house; host or cells: E. coli

[10] = molecular target: T5, PDE4A10 (Homo sapiens, UniProt P27815); assay: in vitro enzyme assay, E. coli expressed and purified PDE4A10; type: biochemical; details: read-out: IC50 (or AC200), PDE4A10
T5 construct: made in house; host or cells: E. coli

[11] = molecular target: PDE4B2 (Homo sapiens, UniProt Q07343); assay: in vitro enzyme assay, E. coli expressed and purified PDE4B2; type: biochemical; design: targets used in the assays are full-length proteins (as opposed to simply the catalytic domain); details: read-out: IC50 (or AC200), PDE4B2
PDE4B2, sequence (Q07343 1-564 isoform Q07343-2, species assumed): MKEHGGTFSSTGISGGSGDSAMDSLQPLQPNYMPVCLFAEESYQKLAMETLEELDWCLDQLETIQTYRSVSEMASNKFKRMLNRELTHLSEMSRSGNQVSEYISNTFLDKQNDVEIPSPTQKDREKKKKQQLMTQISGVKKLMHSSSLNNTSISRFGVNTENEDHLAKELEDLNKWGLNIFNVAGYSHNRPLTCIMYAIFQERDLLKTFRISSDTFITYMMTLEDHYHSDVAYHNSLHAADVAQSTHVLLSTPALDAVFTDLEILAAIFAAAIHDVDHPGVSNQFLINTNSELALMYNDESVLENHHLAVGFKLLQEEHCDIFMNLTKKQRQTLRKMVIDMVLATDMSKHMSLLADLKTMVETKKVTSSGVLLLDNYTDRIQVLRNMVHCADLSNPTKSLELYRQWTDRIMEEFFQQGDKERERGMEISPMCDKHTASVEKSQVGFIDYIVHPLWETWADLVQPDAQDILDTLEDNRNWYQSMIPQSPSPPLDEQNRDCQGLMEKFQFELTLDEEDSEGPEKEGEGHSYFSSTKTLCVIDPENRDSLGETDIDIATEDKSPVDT

T2 sequence (Q08499 1-673 isoform Q08499-2): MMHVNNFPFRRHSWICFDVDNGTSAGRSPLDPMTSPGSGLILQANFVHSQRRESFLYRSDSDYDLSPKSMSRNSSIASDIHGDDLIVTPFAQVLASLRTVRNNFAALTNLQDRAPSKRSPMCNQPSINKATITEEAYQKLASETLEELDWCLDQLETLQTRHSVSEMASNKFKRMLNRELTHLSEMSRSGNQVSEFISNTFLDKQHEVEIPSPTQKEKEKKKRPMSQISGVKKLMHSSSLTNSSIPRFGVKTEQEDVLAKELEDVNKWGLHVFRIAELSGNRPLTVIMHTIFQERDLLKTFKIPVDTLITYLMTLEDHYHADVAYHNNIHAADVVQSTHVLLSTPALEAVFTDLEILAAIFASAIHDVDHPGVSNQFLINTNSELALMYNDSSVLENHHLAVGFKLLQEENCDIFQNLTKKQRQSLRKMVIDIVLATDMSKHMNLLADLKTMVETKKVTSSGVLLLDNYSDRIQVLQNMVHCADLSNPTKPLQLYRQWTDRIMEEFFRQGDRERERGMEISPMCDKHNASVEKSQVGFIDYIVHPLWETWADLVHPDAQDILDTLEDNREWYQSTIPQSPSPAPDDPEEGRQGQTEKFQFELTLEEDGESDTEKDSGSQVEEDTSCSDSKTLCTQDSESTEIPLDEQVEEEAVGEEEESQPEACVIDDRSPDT
PDE4B, sequence (Q07343 whole entry, species assumed, the tested form may be a part): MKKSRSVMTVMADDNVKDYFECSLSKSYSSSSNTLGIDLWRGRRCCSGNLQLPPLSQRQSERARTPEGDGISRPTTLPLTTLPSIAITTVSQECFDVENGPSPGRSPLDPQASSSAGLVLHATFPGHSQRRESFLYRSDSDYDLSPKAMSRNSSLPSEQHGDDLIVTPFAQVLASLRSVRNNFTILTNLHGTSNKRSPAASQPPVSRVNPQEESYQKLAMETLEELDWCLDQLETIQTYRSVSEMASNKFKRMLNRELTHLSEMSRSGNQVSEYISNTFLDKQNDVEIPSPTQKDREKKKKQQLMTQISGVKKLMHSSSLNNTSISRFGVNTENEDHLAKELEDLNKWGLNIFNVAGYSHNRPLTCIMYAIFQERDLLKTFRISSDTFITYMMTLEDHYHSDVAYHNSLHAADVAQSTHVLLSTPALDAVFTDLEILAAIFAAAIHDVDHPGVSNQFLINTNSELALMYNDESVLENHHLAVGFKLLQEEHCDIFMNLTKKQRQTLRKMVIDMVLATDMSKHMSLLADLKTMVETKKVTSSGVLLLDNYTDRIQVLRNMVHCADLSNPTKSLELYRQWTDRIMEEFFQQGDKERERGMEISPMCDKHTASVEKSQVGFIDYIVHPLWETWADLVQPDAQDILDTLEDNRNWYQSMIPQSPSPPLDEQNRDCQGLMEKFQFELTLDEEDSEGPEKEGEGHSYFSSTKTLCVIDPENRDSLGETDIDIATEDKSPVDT
PDE4D, sequence (Q08499 whole entry): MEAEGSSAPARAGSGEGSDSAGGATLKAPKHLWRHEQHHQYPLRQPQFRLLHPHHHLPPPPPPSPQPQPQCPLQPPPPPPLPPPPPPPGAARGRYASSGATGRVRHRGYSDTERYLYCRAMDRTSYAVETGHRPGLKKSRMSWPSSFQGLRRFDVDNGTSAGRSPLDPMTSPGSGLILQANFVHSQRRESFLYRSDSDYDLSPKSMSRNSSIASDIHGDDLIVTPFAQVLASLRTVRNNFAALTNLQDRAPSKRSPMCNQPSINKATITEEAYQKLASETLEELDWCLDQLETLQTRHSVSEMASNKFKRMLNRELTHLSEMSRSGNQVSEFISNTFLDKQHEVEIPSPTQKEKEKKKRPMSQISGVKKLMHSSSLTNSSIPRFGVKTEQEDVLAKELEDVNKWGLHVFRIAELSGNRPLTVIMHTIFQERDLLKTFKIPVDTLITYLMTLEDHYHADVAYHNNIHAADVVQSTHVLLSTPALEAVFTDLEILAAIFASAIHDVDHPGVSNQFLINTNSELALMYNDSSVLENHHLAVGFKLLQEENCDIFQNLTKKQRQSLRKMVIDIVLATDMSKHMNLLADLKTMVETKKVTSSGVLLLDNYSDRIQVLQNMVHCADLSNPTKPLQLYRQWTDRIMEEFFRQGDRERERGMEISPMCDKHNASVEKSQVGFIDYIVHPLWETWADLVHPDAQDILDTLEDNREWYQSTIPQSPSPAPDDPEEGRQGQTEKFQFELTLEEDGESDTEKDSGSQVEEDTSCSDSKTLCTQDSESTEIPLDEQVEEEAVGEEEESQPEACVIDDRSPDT
PDE4A, sequence (P27815 whole entry, species assumed): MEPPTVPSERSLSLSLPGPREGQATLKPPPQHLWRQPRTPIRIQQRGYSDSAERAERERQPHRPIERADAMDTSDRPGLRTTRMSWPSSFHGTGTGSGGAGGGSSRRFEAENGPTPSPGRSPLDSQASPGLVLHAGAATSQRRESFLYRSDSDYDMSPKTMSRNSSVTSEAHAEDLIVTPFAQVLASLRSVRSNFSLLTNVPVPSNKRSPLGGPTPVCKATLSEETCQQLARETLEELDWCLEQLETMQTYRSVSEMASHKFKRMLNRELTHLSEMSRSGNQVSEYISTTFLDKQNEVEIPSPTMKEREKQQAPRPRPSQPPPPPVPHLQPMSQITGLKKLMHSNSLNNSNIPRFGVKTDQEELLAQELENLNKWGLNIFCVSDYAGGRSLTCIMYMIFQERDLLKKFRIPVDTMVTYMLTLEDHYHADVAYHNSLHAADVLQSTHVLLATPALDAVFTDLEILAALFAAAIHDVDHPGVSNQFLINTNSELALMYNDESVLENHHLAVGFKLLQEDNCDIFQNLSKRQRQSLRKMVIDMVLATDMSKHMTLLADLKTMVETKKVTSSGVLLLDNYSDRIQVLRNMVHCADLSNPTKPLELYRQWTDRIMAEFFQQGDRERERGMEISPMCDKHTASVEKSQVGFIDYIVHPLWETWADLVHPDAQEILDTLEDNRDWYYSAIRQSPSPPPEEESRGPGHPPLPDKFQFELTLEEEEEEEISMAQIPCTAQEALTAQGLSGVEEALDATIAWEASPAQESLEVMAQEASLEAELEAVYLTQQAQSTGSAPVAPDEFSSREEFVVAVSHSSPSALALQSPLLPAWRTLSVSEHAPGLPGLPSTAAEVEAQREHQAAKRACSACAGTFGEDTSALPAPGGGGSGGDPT
T4 sequence (Q08499 303-809): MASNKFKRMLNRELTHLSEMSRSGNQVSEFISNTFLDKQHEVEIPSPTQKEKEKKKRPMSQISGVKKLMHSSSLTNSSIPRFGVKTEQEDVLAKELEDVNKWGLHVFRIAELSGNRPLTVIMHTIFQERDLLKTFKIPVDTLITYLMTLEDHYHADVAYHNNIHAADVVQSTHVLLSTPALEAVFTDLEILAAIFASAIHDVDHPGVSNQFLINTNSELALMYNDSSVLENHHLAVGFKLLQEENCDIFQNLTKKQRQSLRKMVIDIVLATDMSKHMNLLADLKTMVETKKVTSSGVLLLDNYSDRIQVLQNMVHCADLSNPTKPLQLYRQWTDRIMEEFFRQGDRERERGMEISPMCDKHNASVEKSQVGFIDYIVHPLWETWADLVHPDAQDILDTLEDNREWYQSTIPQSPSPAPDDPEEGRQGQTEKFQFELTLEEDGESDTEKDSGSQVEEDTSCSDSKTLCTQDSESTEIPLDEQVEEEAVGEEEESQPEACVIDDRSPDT

SMILES: COC(=O)C1=C(C)N(c2ccccc2Cl)C(=O)/C1=C\c1cccs1 [Compound 27]
cAMP Response (% rolipram), 4D3 [7]: 8.00 % rolipram

SMILES: COC(=O)C1=C(C)N(C2CCCCC2)C(=O)/C1=C\c1cccs1 [Compound 22]
cAMP Response (% rolipram), 4D3 [7]: 12.00 % rolipram

SMILES: N#Cc1sc2sc(C#N)c(-c3ccco3)c2c1N [Compound 30]
IC50 [8]: < 100 nM
IC50 [9]: > 2000 nM
IC50 [10]: > 2000 nM
IC50 ([6]; AC200 = [Compound] that doubles PDE activity, read-out: IC50 (or AC200), PDE7B): 12000 nM
IC50 [11]: ~2000 nM

Continued, values first:

EC50 [1]: > 200000 nM
SMILES: Cc1sc2ncnc(Nc3ccccc3)c2c1C [BC64]

remaining activity at 2 µM [2]: 84%
remaining activity at 2 µM [3]: 77%
remaining activity at 2 µM [4]: 52%
remaining activity at 2 µM [5]: 72%
SMILES: Cc1c(C(=O)Nc2ccc(F)cc2F)sc2ncnc(N(C)c3ccccc3)c12 [Compound 58-9]

PDE7B, 2 uM cpm ([6]; 2 uM compound): 15093 cpm
SMILES: Cc1c(C(=O)Nc2ccc(F)cc2F)sc2ncnc(N3CCC(C)CC3)c12 [BC58]

EC50 [1]: 2100 nM
SMILES: CCN(CC)c1ncnc2sc3c(c12)CCCC3 [BC44]
